Converted amounts (≈) assume the structure as drawn. Values belong to the compound of their own block, whether it stands above or below them.
Tests used:
[1] = system: L. monocytogenes ATCC 19115; assay: Antibacterial MIC; type: cell-based; conditions: Listeria monocytogenes, ATCC19115
[2] = system: methicillin-resistant Staphylococcus aureus (MRSA); assay: Antibacterial MIC; type: cell-based
E. coli MC1061 = assay: Antibacterial MIC; type: cell-based; conditions: Escherichia coli
K. pneumoniae ATCC 27736 = assay: Antibacterial MIC; type: cell-based; conditions: Klebsiella pneumoniae, ATCC27736
[3] = system: L. monocytogenes ATCC 19115; type: cell-based, Listeria monocytogenes; conditions: strain B (Lmo), 15 serial passages
MRSA = type: cell-based, Staphylococcus aureus; conditions: strain C (MRSA), 15 serial passages
VRE = type: cell-based, enterococcus; conditions: strain D (VRE), 15 serial passages
P. aeruginosa ATCC 27853 [4] = type: cell-based; conditions: strain I (Pae); for development of resistance (passage after which resistance developed): 15 serial passages
[5] = system: panel of Gram-positive, Gram-negative and mycobacterial strains; assay: Antibacterial MIC, summary over the panel of bacterial strains; type: cell-based; conditions: all bacterial strains tested
C. albicans ATCC 64124 = assay: Antifungal MIC; type: cell-based; conditions: Candida albicans, ATCC64124
C. albicans ATCC 90819 = assay: Antifungal MIC; type: cell-based; conditions: Candida albicans, ATCC90819
[6] = Mammalian cell cytotoxicity, summary over both cell lines; type: cell-based; conditions: human, A549 cells and BEAS-2B cells
B. subtilis 168 = assay: Antibacterial MIC; type: cell-based; conditions: Bacillus subtilis
E. cloacae ATCC 13047 = assay: Antibacterial MIC; type: cell-based; conditions: Enterobacter cloacae, ATCC13047
hERG channel = hERG channel (Homo sapiens, UniProt Q12809); type: binding; conditions: class by IC50
C. albicans ATCC 10231 [7] = type: cell-based, Candida albicans; conditions: C. albicans ATCC 10231, repeated treatments with sub-MIC drug concentrations
C. albicans ATCC 10231 [8] = assay: Intracellular ROS production, DCFH-DA fluorescence assay; type: cell-based, Candida albicans; conditions: 1 h at 35 °C, DCFH-DA staining
[9] = system: vancomycin-resistant enterococcus (VRE); assay: Antibacterial MIC; type: cell-based
P. aeruginosa ATCC 27853 [10] = assay: Antibacterial MIC; type: cell-based; conditions: Pseudomonas aeruginosa, ATCC27853
[11] = system: seven Candida albicans strains; assay: Antifungal MIC, summary over the panel of seven strains; type: cell-based; conditions: most of the fungal strains tested / overall

Sequence of hERG channel (Q12809 whole entry): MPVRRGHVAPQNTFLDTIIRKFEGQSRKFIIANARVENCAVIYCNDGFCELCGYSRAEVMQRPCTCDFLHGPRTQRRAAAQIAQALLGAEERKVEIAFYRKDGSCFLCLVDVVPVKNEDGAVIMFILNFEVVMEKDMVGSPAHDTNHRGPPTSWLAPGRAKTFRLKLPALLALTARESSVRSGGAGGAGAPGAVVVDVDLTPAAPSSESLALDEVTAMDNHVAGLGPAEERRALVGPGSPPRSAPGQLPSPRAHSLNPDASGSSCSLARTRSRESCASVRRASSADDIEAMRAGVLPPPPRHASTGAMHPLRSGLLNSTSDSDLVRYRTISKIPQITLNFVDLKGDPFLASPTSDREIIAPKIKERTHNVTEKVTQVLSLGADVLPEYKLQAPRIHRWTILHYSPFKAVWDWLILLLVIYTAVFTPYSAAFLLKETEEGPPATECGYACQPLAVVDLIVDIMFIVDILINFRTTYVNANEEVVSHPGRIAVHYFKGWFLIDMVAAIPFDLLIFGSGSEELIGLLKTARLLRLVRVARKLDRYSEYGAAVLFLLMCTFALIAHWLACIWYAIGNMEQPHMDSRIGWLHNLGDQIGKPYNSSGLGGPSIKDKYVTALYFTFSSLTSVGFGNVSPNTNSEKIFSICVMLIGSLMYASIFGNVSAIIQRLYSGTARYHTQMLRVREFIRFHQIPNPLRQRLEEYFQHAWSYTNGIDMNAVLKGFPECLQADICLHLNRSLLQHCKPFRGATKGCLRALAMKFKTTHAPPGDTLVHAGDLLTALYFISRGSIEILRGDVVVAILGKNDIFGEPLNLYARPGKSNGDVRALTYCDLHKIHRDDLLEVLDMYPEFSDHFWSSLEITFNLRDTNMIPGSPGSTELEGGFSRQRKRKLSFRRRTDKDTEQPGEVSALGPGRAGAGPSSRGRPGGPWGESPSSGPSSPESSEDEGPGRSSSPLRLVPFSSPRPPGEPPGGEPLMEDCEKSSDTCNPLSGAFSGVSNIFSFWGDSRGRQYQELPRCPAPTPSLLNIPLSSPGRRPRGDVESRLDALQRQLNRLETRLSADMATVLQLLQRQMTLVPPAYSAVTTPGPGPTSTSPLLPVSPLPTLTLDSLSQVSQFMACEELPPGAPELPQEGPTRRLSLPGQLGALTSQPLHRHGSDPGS

SMILES: NCC[C@H](O)C(=O)N[C@@H]1C[C@H](N)[C@@H](O[C@H]2O[C@H](CN)[C@@H](O)[C@H](O)[C@H]2O)[C@H](O)[C@H]1O[C@H]1O[C@H](CO)[C@@H](O)[C@H](N)[C@H]1O [AMK, amikacin, reference compound]
MIC [1]: 3 µg/mL (≈ 5.12 µM) | MIC [2]: 24.5 µg/mL (≈ 41.8 µM) | MIC (E. coli MC1061): 24.5 µg/mL (≈ 41.8 µM) | MIC (K. pneumoniae ATCC 27736): 24.5 µg/mL (≈ 41.8 µM) | development of resistance (passage after which resistance developed) [3]: 15 passages | development of resistance (passage after which resistance developed) (MRSA): 12 passages | development of resistance (passage after which resistance developed) (VRE): 3 passages | development of resistance (passage after which resistance developed) (P. aeruginosa ATCC 27853 [4]): 5 passages | MIC, range over bacterial strains tested [5]: 3.9 to 125 µM

SMILES: CC1(C)S[C@@H]2[C@H](NC(=O)[C@H](N)c3ccccc3)C(=O)N2[C@H]1C(=O)O [AMP, ampicillin, reference compound]
MIC (E. coli MC1061): > 92.8 µg/mL | MIC, range over bacterial strains tested [5]: ≥ 250 µM

MIC (C. albicans ATCC 64124): 2 to 3.9 µg/mL (≈ 2.16 to 4.22 µM) | MIC (C. albicans ATCC 90819): 2 µg/mL (≈ 2.16 µM)
SMILES: C[C@@H]1[C@H](O)[C@@H](C)/C=C/C=C/C=C/C=C/C=C/C=C/C=C/[C@H](O[C@@H]2O[C@H](C)[C@@H](O)[C@H](N)[C@@H]2O)C[C@@H]2O[C@](O)(C[C@@H](O)C[C@@H](O)[C@H](O)CC[C@@H](O)C[C@@H](O)CC(=O)O[C@H]1C)C[C@H](O)[C@H]2C(=O)O [AmB, amphotericin B]

SMILES: Cl.Cl.N=C(N)N/N=C/c1ccc(-c2ccc(/C=N/NC(=N)N)cc2)cc1 [Compound 3A]
MIC (E. coli MC1061): > 198 µg/mL

SMILES: Cl.Cl.N=C(N)N/N=C/c1ccc(-c2cccc(/C=N/NC(=N)N)c2)cc1 [Compound 3B]
MIC (E. coli MC1061): > 198 µg/mL | IC50 [6]: 4.4 to 13.9 µg/mL

SMILES: C/C(=N\NC(=N)N)c1ccc(-c2ccc(/C(C)=N/NC(=N)N)cc2)cc1.Cl.Cl [Compound 4A]
MIC (E. coli MC1061): 26.5 µg/mL

SMILES: C/C(=N\NC(=N)N)c1ccc(Cc2ccc(/C(C)=N/NC(=N)N)cc2)cc1.Cl.Cl [Compound 4C]
MIC (E. coli MC1061): > 219 µg/mL

SMILES: C/C(=N\NC(=N)N)c1ccc(CCc2ccc(/C(C)=N/NC(=N)N)cc2)cc1.Cl.Cl [Compound 4D]
MIC (E. coli MC1061): > 226 µg/mL | increase in MIC values (P. aeruginosa ATCC 27853 [4]; after 15 serial passages at sub-inhibitory concentrations): 4 fold

SMILES: C/C(=N\NC(=N)N)c1ccc(Oc2ccc(/C(C)=N/NC(=N)N)cc2)cc1.Cl.Cl [Compound 4E]
MIC (B. subtilis 168): 54.9 µg/mL | MIC [2]: 54.9 µg/mL | MIC (E. coli MC1061): 54.9 µg/mL

SMILES: C/C(=N\NC(=N)N)c1ccc2c(c1)Cc1cc(/C(C)=N/NC(=N)N)ccc1-2.Cl.Cl [Compound 4F]
MIC (E. cloacae ATCC 13047): 218 µg/mL | MIC (E. coli MC1061): 218 µg/mL | affinity for / interaction with hERG (class) (hERG channel): moderate (IC50 values in the range of 1-10 μM are considered to have moderate affinity) | development of resistance (passage after which resistance developed) [3]: did not develop resistance | development of resistance (passage after which resistance developed) (MRSA): did not develop resistance | development of resistance (passage after which resistance developed) (VRE): did not develop resistance | development of resistance (passage after which resistance developed) (P. aeruginosa ATCC 27853 [4]): did not develop resistance | development of drug resistance (C. albicans ATCC 10231 [7]): did not to develop drug resistance | intracellular ROS production (C. albicans ATCC 10231 [8]; 1× and 2× MIC): increased intracellular ROS production

SMILES: C/C(=N\NC(=N)N)c1ccc(/C(C)=N/NC(=N)N)cc1.Cl.Cl [Compound 4G]
MIC (E. coli MC1061): > 173 µg/mL

SMILES: C/C(=N\NC(=N)N)c1cccc(/C(C)=N/NC(=N)N)c1.Cl.Cl [Compound 4H]
MIC (E. coli MC1061): > 173 µg/mL

SMILES: Cl.N=C(N)N/N=C/c1ccc(-c2ccc(/C=N/Nc3ccccc3Cl)cc2)cc1 [Compound 7Aa]
MIC (B. subtilis 168): > 215 µg/mL | MIC [1]: 0.4 to 0.9 µg/mL | MIC [2]: 0.9 µg/mL | MIC [9]: 0.9 µg/mL | MIC (E. cloacae ATCC 13047): > 215 µg/mL | MIC (E. coli MC1061): > 215 µg/mL | MIC (K. pneumoniae ATCC 27736): > 215 µg/mL | MIC (P. aeruginosa ATCC 27853 [10]): > 215 µg/mL | affinity for / interaction with hERG (class) (hERG channel): moderate (IC50 values in the range of 1-10 μM are considered to have moderate affinity) | development of resistance (passage after which resistance developed) [3]: did not develop resistance | development of resistance (passage after which resistance developed) (MRSA): twelve | development of resistance (passage after which resistance developed) (VRE): did not develop resistance | development of resistance (passage after which resistance developed) (P. aeruginosa ATCC 27853 [4]): twelve | development of drug resistance (C. albicans ATCC 10231 [7]): did not to develop drug resistance | intracellular ROS production (C. albicans ATCC 10231 [8]; 1× and 2× MIC): increased intracellular ROS production

SMILES: Cl.N=C(N)N/N=C/c1ccc(-c2ccc(/C=N/Nc3ccccc3Br)cc2)cc1 [Compound 7Ab]
MIC (E. coli MC1061): > 235 µg/mL

SMILES: Cl.N=C(N)N/N=C/c1ccc(-c2ccc(/C=N/Nc3ccc(Cl)cc3)cc2)cc1 [Compound 7Ad]
MIC (E. coli MC1061): > 214 µg/mL | IC50 [6]: 4.4 to 13.9 µg/mL

SMILES: Cl.N#Cc1ccc(N/N=C/c2ccc(-c3ccc(/C=N/NC(=N)N)cc3)cc2)cc1 [Compound 7Ae]
MIC (E. coli MC1061): 26.1 to 52.2 µg/mL

SMILES: Cl.N=C(N)N/N=C/c1ccc(-c2ccc(/C=N/Nc3ccc(F)cc3F)cc2)cc1 [Compound 7Af]
MIC (E. coli MC1061): > 214 µg/mL | affinity for / interaction with hERG (class) (hERG channel): moderate (IC50 values in the range of 1-10 μM are considered to have moderate affinity) | antifungal activity (class) [11]: excellent (excellent (MIC = 0.5-3.9 μg/mL)) | IC50 [6]: 4.4 to 13.9 µg/mL

SMILES: Cl.N=C(N)N/N=C/c1ccc(-c2ccc(/C=N/Nc3ccc(Cl)cc3Cl)cc2)cc1 [Compound 7Ag]
MIC (E. coli MC1061): > 231 µg/mL

SMILES: C/C(=N\NC(=N)N)c1ccc(-c2ccc(/C(C)=N/Nc3ccccc3Cl)cc2)cc1.Cl [Compound 8Aa]
MIC (E. cloacae ATCC 13047): 213 µg/mL | MIC (E. coli MC1061): 213 µg/mL | MIC (P. aeruginosa ATCC 27853 [10]): 213 µg/mL

SMILES: OO [Compound H2O2, H2O2, reference compound]
intracellular ROS production (C. albicans ATCC 10231 [8]; positive control at 1 mM): induced ROS production

SMILES: CC1COc2c(N3CCN(C)CC3)c(F)cc3c(=O)c(C(=O)O)cn1c23 (stereo not shown) [OFX, ofloxacin, reference compound]
MIC (E. coli MC1061): 1.4 to 2.8 µg/mL (≈ 3.87 to 7.75 µM) | MIC, range over bacterial strains tested [5]: ≤0.5 to 31.3 µM
